Patent US9521846B2, “Template-fixed peptidomimetics with antimicrobial activity” (priority 2006, dated 2016)
≈ marks a conversion by molar mass, not a printed value. Non-standard residues stand in square brackets, D forms with d. Residues, ends and D or L forms follow the SMILES beside them. Tle = CC(C)(C)[C@H](N)C(=O)O; dDab = NCC[C@@H](N)C(=O)O; Orn = NCCC[C@H](N)C(=O)O; Dab = NCC[C@H](N)C(=O)O; Aib = CC(C)(N)C(=O)O

Key:
[1] = test system: P. aeruginosa ATCC 27853; type: cell-based, Pseudomonas aeruginosa; conditions: ATCC 27853
Experimental: (§1) The selective antimicrobial activities of the peptides were determined in 96-well plates (Nunclon polystyrene) by the standard NCCLS broth microdilution method (see ref 1, below) with slight modifications. Innocula of the microorganisms were diluted into Mueller-Hinton (MH) broth+0.02% BSA and compared with a 0.5 Mcfarland standard to give appr. 10^6 colony forming units (CFU)/ml. Aliquots (50 μl) of inoculate were added to 50 μl of MH broth+0.02% BSA containing the peptide in serial two-fold dilutions. The following microorganisms were used to determine antibiotic selectivity of the peptides: Escherichia coli (ATCC 25922), Pseudomonas aeruginosa (P. aeruginosa ATCC 27853, P8191900, P1021903, P1021913, IMP 1 Livermore 3140).

[2] = test system: Pseudomonas aeruginosa IMP 1 Livermore 3140; type: cell-based; conditions: IMP 1 Livermore 3140
Experimental: as §1

[3] = test system: Pseudomonas aeruginosa P1021903; type: cell-based; conditions: P1021903
Experimental: as §1

[4] = test system: Pseudomonas aeruginosa P1021913; type: cell-based; conditions: P1021913
Experimental: as §1

[5] = test system: Pseudomonas aeruginosa P8191900; type: cell-based; conditions: P8191900
Experimental: as §1

[6] = test system: HELA cells (Acc57); assay: Cytotoxicity assay, MTT reduction (LC 50, GI 50); type: cell-based
Experimental: The cytotoxicity of the peptides to HELA cells (Acc57) and COS-7 cells (CRL-1651) was determined using the MIT reduction assay [see ref. 2 and 3, below]. Briefly the method was as follows: HELA cells and COS-7 cells were seeded at 7.0×10^3 and, respectively, 4.5×10^3 cells per well and grown in 96-well […] plates for 24 hours at 37° C. at 5% CO2. At this point, time zero (Tz) was determined by MTT reduction (see below). The supernatant of the remaining wells was discarded, and fresh medium and the peptides in serial dilutions of 12.5, 25 and 50 μM were dispensed into the wells. Each peptide concentration was assayed in triplicate. Incubation of the cells was continued for 48 hours at 37° C. at 5% CO2. Wells were then washed once with phosphate buffered saline (PBS) and subsequently 100 μl MIT reagent (0.5 mg/ml in medium RPMI1640 and, respectively, DMEM) were added to the wells. This was incubated at 37° C. for 2 hours and subsequently the medium was aspirated and 100 μl isopropanol were added to each well. The absorbance at 595 nm of the solubilized product was measured (OD595peptide). For each concentration averages were calculated from triplicates. The percentage of growth was calculated as follows: (OD595peptide-OD595Tz-OD595Empty well)/(OD595Tz-OD595Empty well)×100% and was plotted for each peptide concentration.
The LC 50 values (Lethal Concentration, defined as the concentration that kills 50% of the cells) were determined for each peptide by using the trend line function of EXCEL (Microsoft Office 2000) for the concentrations (50, 25, 12.5 and 0 μM), the corresponding growth percentages and the value −50, (=TREND(C50:C0,%50:%0,−50)). The GI 50 (Growth Inhibition) concentrations were calculated for each peptide by using a trend line function for the concentrations (50, 25, 12.5 and 0 […]), the corresponding percentages and the value 50, (=TREND (C50:C0,%50:%0,50).

[7] = test system: human red blood cells (hRBC); assay: Hemolysis; type: cell-based; conditions: 100
Experimental: Hemolysis of red blood cells is often employed for assessment of toxicity of related compounds such as protegrin or tachyplesin. Values are given as %-lysis of red blood cells observed at a concentration of 100 μg/ml. Typical values determined for cationic peptides such as protegrin and tachyplesin range between 30-40% with average MIC-values of 1-5 μg/ml over a wide range of pathogens.
The peptides were tested for their hemolytic activity against human red blood cells (hRBC). Fresh hRBC were washed three times with phosphate buffered saline (PBS) by centrifugation for 10 min at 2000×g. Peptides at a concentration of 100 μM were incubated with 20% v/v hRBC for 1 hour at 37° C. The final erythrocyte concentration was approximately 0.9×10^9 cells per ml. A value of 0% and, respectively, 100% cell lysis was determined by incubation of the hRBC in the presence of PBS alone and, respectively, 0.1% Triton X-100 in H2O. The samples were centrifuged, the supernatant was 20-fold diluted in PBS buffer and the optical density (OD) of the sample at […] was measured. The 100% lysis value (OD540H20) gave an OD540 of approximately 1.3-1.8. Percent hemolysis was calculated as follows: (OD540peptide/OD540H20)×100%.

[8] = test system: P. aeruginosa

Row | SMILES | MIC P. aeruginosa ATCC 27853 [1] | MIC P. aeruginosa IMP1 Livermore 3140 [2] | MIC P. aeruginosa P1021903 [3] | MIC P. aeruginosa P1021913 [4] | MIC P. aeruginosa P8191900 [5] | Cytotoxicity GI50 Hela cells [6] | Hemolysis at 100 μg/ml [7] | Average MIC [8]
1 | CC[C@H](C)[C@@H]1NC(=O)[C@H](Cc2c[nH]c3ccccc23)NC(=O)[C@H]([C@@H](C)O)NC(=O)[C@@H]2CCCN2C(=O)[C@H]2CCCN2C(=O)[C@H](CCN)NC(=O)C(C)(C)NC(=O)[C@H](CCN)NC(=O)[C@H](CCN)NC(=O)[C@H](Cc2c[nH]c3ccccc23)NC(=O)[C@H](CCN)NC(=O)[C@H](CCN)NC(=O)[C@H](CCCCN)NC(=O)[C@H](CCN)NC1=O [Example 5] (cyclo(TWI[Dab]K[Dab][Dab]W[Dab][Dab][Aib][Dab][dP]P)) | 0.08 µg/mL (≈ 0.0502 µM) | 0.75 µg/mL (≈ 0.47 µM) | 0.21 µg/mL (≈ 0.132 µM) | 0.21 µg/mL (≈ 0.132 µM) | 0.30 µg/mL (≈ 0.188 µM) | 50 µM | 0.6% | 0.31 µg/mL
2 | CC[C@H](C)[C@@H]1NC(=O)[C@H](Cc2c[nH]c3ccccc23)NC(=O)[C@H]([C@@H](C)O)NC(=O)[C@@H]2CCCN2C(=O)[C@H]2CCCN2C(=O)[C@H](CCN)NC(=O)[C@H](C)NC(=O)[C@H](CCN)NC(=O)[C@H](CCN)NC(=O)[C@H](Cc2c[nH]c3ccccc23)NC(=O)[C@H](Cc2c[nH]cn2)NC(=O)[C@H](CCN)NC(=O)[C@H](CCCCN)NC(=O)[C@H](CCN)NC1=O [Example 21] (cyclo(TWI[Dab]K[Dab]HW[Dab][Dab]A[Dab][dP]P)) | 0.09 µg/mL (≈ 0.0556 µM) | 1.00 µg/mL (≈ 0.618 µM) | 0.21 µg/mL (≈ 0.13 µM) | 0.31 µg/mL (≈ 0.192 µM) | 0.40 µg/mL (≈ 0.247 µM) | 50 µM | 0.4% | 0.40 µg/mL
3 | CC[C@H](C)[C@@H]1NC(=O)[C@H](Cc2c[nH]c3ccccc23)NC(=O)[C@H]([C@@H](C)O)NC(=O)[C@@H]2CCCN2C(=O)[C@H]2CCCN2C(=O)[C@H](CCN)NC(=O)[C@H](C(C)(C)C)NC(=O)[C@H](CCN)NC(=O)[C@H](CCN)NC(=O)[C@H](Cc2c[nH]c3ccccc23)NC(=O)[C@H](CCN)NC(=O)[C@H](CCN)NC(=O)[C@H](CCCCN)NC(=O)[C@H](CCN)NC1=O [Example 36] (cyclo(TWI[Dab]K[Dab][Dab]W[Dab][Dab][Tle][Dab][dP]P)) | 0.06 µg/mL (≈ 0.037 µM) | 0.43 µg/mL (≈ 0.265 µM) | 0.18 µg/mL (≈ 0.111 µM) | 0.24 µg/mL (≈ 0.148 µM) | 0.18 µg/mL (≈ 0.111 µM) | 50 µM | 0.1% | 0.22 µg/mL
4 | CC[C@H](C)[C@@H]1NC(=O)[C@H](Cc2c[nH]c3ccccc23)NC(=O)[C@H]([C@@H](C)O)NC(=O)[C@@H]2CCCN2C(=O)[C@H]2CCCN2C(=O)[C@H](CCN)NC(=O)[C@H](C)NC(=O)[C@H](CCN)NC(=O)[C@H](CCCCN)NC(=O)[C@H](Cc2c[nH]c3ccccc23)NC(=O)[C@H](CCN)NC(=O)[C@H](CCN)NC(=O)[C@H](CCCCN)NC(=O)[C@H](CCN)NC1=O [Example 27] (cyclo(TWI[Dab]K[Dab][Dab]WK[Dab]A[Dab][dP]P)) | 0.09 µg/mL (≈ 0.0559 µM) | 0.50 µg/mL (≈ 0.311 µM) | 0.30 µg/mL (≈ 0.186 µM) | 0.21 µg/mL (≈ 0.131 µM) | 0.30 µg/mL (≈ 0.186 µM) | 50 µM | 0.6% | 0.28 µg/mL
5 | CC[C@H](C)[C@@H]1NC(=O)[C@H](Cc2c[nH]c3ccccc23)NC(=O)[C@H]([C@@H](C)O)NC(=O)[C@@H]2CCCN2C(=O)[C@H]2CCCN2C(=O)[C@H](CCN)NC(=O)[C@H]([C@@H](C)CC)NC(=O)[C@H](CCN)NC(=O)[C@H](CCN)NC(=O)[C@H](Cc2c[nH]c3ccccc23)NC(=O)[C@H](CCN)NC(=O)[C@H](CCN)NC(=O)[C@H](CCCCN)NC(=O)[C@H](CCN)NC1=O [Example 8] (cyclo(TWI[Dab]K[Dab][Dab]W[Dab][Dab]I[Dab][dP]P)) | 0.05 µg/mL (≈ 0.0308 µM) | 0.43 µg/mL (≈ 0.265 µM) | 0.18 µg/mL (≈ 0.111 µM) | 0.31 µg/mL (≈ 0.191 µM) | 0.18 µg/mL (≈ 0.111 µM) | 50 µM | 0% | 0.23 µg/mL
6 | CC[C@H](C)[C@@H]1NC(=O)[C@H](Cc2c[nH]c3ccccc23)NC(=O)[C@H]([C@@H](C)O)NC(=O)[C@@H]2CCCN2C(=O)[C@H]2CCCN2C(=O)[C@H](CO)NC(=O)[C@H](C)NC(=O)[C@H](CCN)NC(=O)[C@H](CCN)NC(=O)[C@H](Cc2c[nH]c3ccccc23)NC(=O)[C@H](CCN)NC(=O)[C@@H](CCN)NC(=O)[C@H](CCCN)NC(=O)[C@H](CCN)NC1=O [Example 49] (cyclo(TWI[Dab][Orn][dDab][Dab]W[Dab][Dab]AS[dP]P)) | 0.03 µg/mL (≈ 0.0193 µM) | 0.50 µg/mL (≈ 0.322 µM) | 0.03 µg/mL (≈ 0.0193 µM) | 0.25 µg/mL (≈ 0.161 µM) | 0.06 µg/mL (≈ 0.0386 µM) | 50 µM | 0.1% | 0.17 µg/mL
7 | CC[C@H](C)[C@@H]1NC(=O)[C@H](Cc2c[nH]c3ccccc23)NC(=O)[C@H]([C@@H](C)O)NC(=O)[C@@H]2CCCN2C(=O)[C@H]2CCCN2C(=O)[C@H](CCN)NC(=O)[C@@H](C)NC(=O)[C@H](CCN)NC(=O)[C@H](CCN)NC(=O)[C@H](Cc2c[nH]c3ccccc23)NC(=O)[C@H](CCN)NC(=O)[C@H](CCN)NC(=O)[C@H](CCCCN)NC(=O)[C@H](CCN)NC1=O [Example 3] (cyclo(TWI[Dab]K[Dab][Dab]W[Dab][Dab][dA][Dab][dP]P)) | 0.09 µg/mL (≈ 0.0569 µM) | 2.0 µg/mL (≈ 1.27 µM) | 0.30 µg/mL (≈ 0.19 µM) | 0.31 µg/mL (≈ 0.196 µM) | 0.30 µg/mL (≈ 0.19 µM) | 34 µM | 0.6% | 0.6 µg/mL
